Measured values from PMC11381475, “Biopharmaceutical profiling of anti-infective sanggenons from Morus alba root bark for inhalation administration” (International Journal of Pharmaceutics: X, 2024).

Assays:
[1] = system: lung epithelial monolayers; details: cited from earlier work

fluorescein permeation across Calu-3 monolayer (Calu-3 monolayer) | Compound | Papp [1]
– | NC[C@H]1O[C@H](O[C@H]2[C@H](O)[C@@H](O[C@H]3O[C@H](CO)[C@@H](O)[C@H](N)[C@H]3O)[C@H](N)C[C@@H]2N)[C@H](N)C[C@@H]1O [tobramycin] | < 5e-08 cm/s
– | C[C@H]1[C@H](NC(=O)/C(=N\OC(C)(C)C(=O)O)c2csc(N)n2)C(=O)N1S(=O)(=O)O [aztreonam] | 0.07 ± 0.02 × 10^−6 cm/s
– | colistin | 0.04 ± 0.02 × 10^−6 cm/s
no fluorescein permeation was detected | O=C1OC2(c3ccc(O)cc3Oc3cc(O)ccc32)c2ccccc21 [fluorescein] | –
